Reference: ChEMBL document CHEMBL3885881, “DrugMatrix”

Organism: Rattus norvegicus
Experiment: DrugMatrix - Regimen: Daily Repeat
Format: toxicity, organism-based, Sprague-Dawley
Set-up: regimen Daily Repeat, gender Male, age 6-8 weeks
Settings: in vivo, po, 20 mg/kg, route oral GAVAGE, dose level Low, vehicle 100 % WATER; for ABSOLUTE BASOPHIL / ABSOLUTE EOSINOPHIL / ABSOLUTE LYMPHOCYTE / ABSOLUTE MONOCYTE / ABSOLUTE SEGMENTED NEUTROPHIL / BASOPHIL / EOSINOPHIL / ERYTHROCYTE COUNT / HEMATOCRIT / HEMOGLOBIN / LEUKOCYTE COUNT / LYMPHOCYTE / MEAN CORPUSCULAR HEMOGLOBIN / MEAN CORPUSCULAR HEMOGLOBIN CONCENTRATION / MEAN CORPUSCULAR VOLUME / MONOCYTE / NEUTROPHIL / NUCLEATED RED BLOOD CELLS / PLATELET COUNT: tissue Blood
[1] = 72 h, tissue Plasma, time 3 day
[2] = 120 h, tissue Plasma, time 5 day

SMILES: COCCCOc1ccnc(C[S+]([O-])c2nc3ccccc3[nH]2)c1C (stereo not given) [RABEPRAZOLE]
- ABSOLUTE BASOPHIL (72 h, time 3 day): 0 CELLS/uL
- ABSOLUTE EOSINOPHIL (72 h, time 3 day): 317.67 CELLS/uL
- ABSOLUTE LYMPHOCYTE (72 h, time 3 day): 11906.67 CELLS/uL
- ABSOLUTE MONOCYTE (72 h, time 3 day): 267.33 CELLS/uL
- ABSOLUTE SEGMENTED NEUTROPHIL (72 h, time 3 day): 875 CELLS/uL
- BASOPHIL (72 h, time 3 day): 0%
- EOSINOPHIL (72 h, time 3 day): 2.33%
- ERYTHROCYTE COUNT (72 h, time 3 day): 5.67 x10E6/uL
- HEMATOCRIT (72 h, time 3 day): 36.1%
- HEMOGLOBIN (72 h, time 3 day): 13.63 G/DL
- LEUKOCYTE COUNT (72 h, time 3 day): 13.37 x10E3/uL
- LYMPHOCYTE (72 h, time 3 day): 89%
- MEAN CORPUSCULAR HEMOGLOBIN (72 h, time 3 day): 24.07 pg
- MEAN CORPUSCULAR HEMOGLOBIN CONCENTRATION (72 h, time 3 day): 37.8 G/DL
- MEAN CORPUSCULAR VOLUME (72 h, time 3 day): 63.8 fL
- MONOCYTE (72 h, time 3 day): 2%
- NEUTROPHIL (72 h, time 3 day): 6.67%
- NUCLEATED RED BLOOD CELLS (72 h, time 3 day): 0 /100WBC
- PLATELET COUNT (72 h, time 3 day): 1283.67 x10E3/uL
- ALANINE AMINOTRANSFERASE [1]: 42 u/L
- ALBUMIN [1]: 4.3 G/DL
- ALKALINE PHOSPHATASE [1]: 427.67 u/L
- ASPARTATE AMINOTRANSFERASE [1]: 83.33 u/L
- BLOOD UREA NITROGEN [1]: 14.33 mg/dL
- CARBON DIOXIDE [1]: 27 mmol/L
- CHLORIDE [1]: 105.67 MEQ/L
- CHOLESTEROL [1]: 82.33 mg/dL
- CREATINE PHOSPHOKINASE [1]: 491.33 u/L
- CREATININE [1]: 0.16 mg/dL
- GLUCOSE [1]: 161.67 mg/dL
- LACTATE DEHYDROGENASE [1]: 92.33 u/L
- LIPASE [1]: 9 u/L
- PHOSPHORUS [1]: 14.1 mg/dL
- POTASSIUM [1]: 6.68 MEQ/L
- SODIUM [1]: 146.6 MEQ/L
- TOTAL BILIRUBIN [1]: 0.2 mg/dL
- TOTAL PROTEIN [1]: 5.87 G/DL
- URIC ACID [1]: 2.2 mg/dL
- ABSOLUTE BASOPHIL (120 h, time 5 day): 0 CELLS/uL
- ABSOLUTE EOSINOPHIL (120 h, time 5 day): 38.67 CELLS/uL
- ABSOLUTE LYMPHOCYTE (120 h, time 5 day): 10652 CELLS/uL
- ABSOLUTE MONOCYTE (120 h, time 5 day): 120.67 CELLS/uL
- ABSOLUTE SEGMENTED NEUTROPHIL (120 h, time 5 day): 788.67 CELLS/uL
- BASOPHIL (120 h, time 5 day): 0%
- EOSINOPHIL (120 h, time 5 day): 0.33%
- ERYTHROCYTE COUNT (120 h, time 5 day): 5.6 x10E6/uL
- HEMATOCRIT (120 h, time 5 day): 36.27%
- HEMOGLOBIN (120 h, time 5 day): 13.6 G/DL
- LEUKOCYTE COUNT (120 h, time 5 day): 11.6 x10E3/uL
- LYMPHOCYTE (120 h, time 5 day): 91.67%
- MEAN CORPUSCULAR HEMOGLOBIN (120 h, time 5 day): 24.27 pg
- MEAN CORPUSCULAR HEMOGLOBIN CONCENTRATION (120 h, time 5 day): 37.5 G/DL
- MEAN CORPUSCULAR VOLUME (120 h, time 5 day): 64.73 fL
- MONOCYTE (120 h, time 5 day): 1%
- NEUTROPHIL (120 h, time 5 day): 7%
- NUCLEATED RED BLOOD CELLS (120 h, time 5 day): 0 /100WBC
- PLATELET COUNT (120 h, time 5 day): 1417.67 x10E3/uL
- ALANINE AMINOTRANSFERASE [2]: 49.33 u/L
- ALBUMIN [2]: 4.17 G/DL
- ALKALINE PHOSPHATASE [2]: 321 u/L
- ASPARTATE AMINOTRANSFERASE [2]: 105 u/L
- BLOOD UREA NITROGEN [2]: 19 mg/dL
- CARBON DIOXIDE [2]: 23 mmol/L
- CHLORIDE [2]: 110 MEQ/L
- CHOLESTEROL [2]: 67 mg/dL
- CREATINE PHOSPHOKINASE [2]: 1368.67 u/L
- CREATININE [2]: 0.21 mg/dL
- GLUCOSE [2]: 203 mg/dL
- LACTATE DEHYDROGENASE [2]: 225 u/L
- LIPASE [2]: 8.67 u/L
- PHOSPHORUS [2]: 13.93 mg/dL
- POTASSIUM [2]: 6.05 MEQ/L
- SODIUM [2]: 148.17 MEQ/L
- TOTAL BILIRUBIN [2]: 0.2 mg/dL
- URIC ACID [2]: 1.77 mg/dL
